In US10202370B2, “Benzimidazole derivatives as selective proteine kinase inhibitors” (AB SCIENCE, priority 2013, dated 2019):

Molecular target: c-kit WT (Homo sapiens (Human), UniProt P10721)
Assay: Proliferation assay (CellTiter-Blue) on BaF3 Kit WT cell line
Type: cell-based
Conditions: BaF3 Kit WT cell line (murine Ba/F3 expressing Human Kit WT, with murine SCF), 48 hours
In short: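 Ba/F3 cells expressing human Kit WT, maintained in RPMI/10% FCS with 250 ng/ml murine SCF, were seeded at 2.10^4 cells/well and exposed to ½ serial dilutions (0–10 μM) for 48 h at 37° C. Viability was measured by CellTiter-Blue fluorescence (544Ex/590Em, 4 h) in triplicate as % of untreated proliferation.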

Chain of c-kit WT (P10721 26-976): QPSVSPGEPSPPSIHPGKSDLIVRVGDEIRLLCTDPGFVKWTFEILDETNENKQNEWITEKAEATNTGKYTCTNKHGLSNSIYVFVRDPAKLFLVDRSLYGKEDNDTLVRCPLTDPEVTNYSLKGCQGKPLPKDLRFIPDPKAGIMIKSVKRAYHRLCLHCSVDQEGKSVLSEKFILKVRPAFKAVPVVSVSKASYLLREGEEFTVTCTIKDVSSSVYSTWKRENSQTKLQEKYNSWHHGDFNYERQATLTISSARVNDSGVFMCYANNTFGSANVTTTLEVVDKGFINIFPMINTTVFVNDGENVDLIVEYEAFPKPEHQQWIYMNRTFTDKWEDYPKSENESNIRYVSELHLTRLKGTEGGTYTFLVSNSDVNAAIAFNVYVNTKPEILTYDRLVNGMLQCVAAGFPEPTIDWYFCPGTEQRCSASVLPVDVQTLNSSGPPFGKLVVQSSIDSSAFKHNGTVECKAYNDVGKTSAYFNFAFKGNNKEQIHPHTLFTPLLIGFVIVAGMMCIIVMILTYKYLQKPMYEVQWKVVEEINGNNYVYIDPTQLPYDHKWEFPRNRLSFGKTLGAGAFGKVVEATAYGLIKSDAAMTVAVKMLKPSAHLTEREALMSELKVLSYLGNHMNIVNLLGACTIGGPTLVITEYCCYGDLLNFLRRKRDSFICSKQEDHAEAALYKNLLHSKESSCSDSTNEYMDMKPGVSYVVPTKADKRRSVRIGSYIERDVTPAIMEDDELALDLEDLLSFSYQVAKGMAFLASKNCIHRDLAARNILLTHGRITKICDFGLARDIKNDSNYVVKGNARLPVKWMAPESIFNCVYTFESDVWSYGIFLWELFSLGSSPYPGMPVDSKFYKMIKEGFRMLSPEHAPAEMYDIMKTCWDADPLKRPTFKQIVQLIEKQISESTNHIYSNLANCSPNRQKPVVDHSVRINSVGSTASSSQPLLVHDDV

SMILES	IC50
Cc1cccc(-c2nc3cc(Nc4nc(-c5ccc(C#N)cc5)cs4)c(C)cc3n2C)c1 [Compound 112, 4-[2-(1,6-Dimethyl-2-m-tolyl-1H-benzoimidazol-5-ylamino)-thiazol-4-yl]-benzonitrile]	≤ 1 µM
Cc1cc2nc(-c3cccc(C(F)F)c3)n(C)c2cc1Nc1nc(-c2cccnc2)cs1 [Compound 113, [2-(3-Difluoromethyl-phenyl)-3,6-dimethyl-3H-benzoimidazol-5-yl]-(4-pyridin-3-yl-thiazol-2-yl)-amine]	1 to 10 µM
Cc1cc2c(cc1Nc1nc(-c3ccc(C#N)cc3)cs1)nc(-c1cccc(C(F)(F)F)c1)n2C [Compound 114, 4-{2-[1,6-Dimethyl-2-(3-trifluoromethyl-phenyl)-1H-benzoimidazol-5-ylamino]-thiazol-4-yl}-benzonitrile]	≤ 1 µM
CCn1c(-c2cccc(OC(F)(F)F)c2)nc2cc(Nc3nc(-c4cccnc4)cs3)c(C)cc21 [Compound 115, [1-Ethyl-6-methyl-2-(3-trifluoromethoxy-phenyl)-1H-benzoimidazol-5-yl]-(4-pyridin-3-yl-thiazol-2-yl)-amine]	≤ 1 µM
Cc1cc2nc(-c3cccc(C(F)(F)F)c3)n(C)c2cc1Nc1nc(-c2cccnc2)cs1 [Compound 116, [3,6-Dimethyl-2-(3-trifluoromethyl-phenyl)-3H-benzoimidazol-5-yl]-(4-pyridin-3-yl-thiazol-2-yl)-amine]	1 to 10 µM
Cc1cc2nc(-c3cccc(OC(F)(F)F)c3)n(C)c2cc1Nc1nc(-c2cccnc2)cs1 [Compound 117, [3,6-Dimethyl-2-(3-trifluoromethoxy-phenyl)-3H-benzoimidazol-5-yl]-(4-pyridin-3-yl-thiazol-2-yl)-amine]	1 to 10 µM
Cc1cccc(-c2nc3cc(C)c(Nc4nc(-c5cccnc5)cs4)cc3n2C)c1 [Compound 118, (3,6-Dimethyl-2-m-tolyl-3H-benzoimidazol-5-yl)-(4-pyridin-3-yl-thiazol-2-yl)-amine]	1 to 10 µM
Cc1cc2c(cc1Nc1nc(-c3ccnc(Cl)c3)cs1)nc(-c1cccc(C(F)F)c1)n2C [Compound 119, [4-(2-Chloro-pyridin-4-yl)-thiazol-2-yl]-[2-(3-difluoromethyl-phenyl)-1,6-dimethyl-1H-benzoimidazol-5-yl]-amine]	≤ 1 µM
Cc1cc2c(cc1Nc1nc(-c3ccncc3)cs1)nc(-c1cccc(S(C)(=O)=O)c1)n2C [Compound 120, [2-(3-Methanesulfonyl-phenyl)-1,6-dimethyl-1H-benzoimidazol-5-yl]-(4-pyridin-4-yl-thiazol-2-yl)-amine]	≤ 1 µM
Cc1cc2[nH]c(-c3cccc(S(C)(=O)=O)c3)nc2cc1Nc1nc(-c2cccnc2)cs1 [Compound 121, [2-(3-Methanesulfonyl-phenyl)-6-methyl-1H-benzoimidazol-5-yl]-(4-pyridin-3-yl-thiazol-2-yl)-amine]	≤ 1 µM
C=CS(=O)(=O)Nc1cc(-c2nc3cc(Nc4nc(-c5ccncc5)cs4)c(C)cc3n2C)cc(C(F)(F)F)c1 [Compound 122, Ethenesulfonic acid {3-[1,6-dimethyl-5-(4-pyridin-4-yl-thiazol-2-ylamino)-yl]-5-trifluoromethyl-phenyl}-amide]	1 to 10 µM
Cc1cc2[nH]c(-c3cccc(F)c3)nc2cc1Nc1nc(-c2cccnc2)cs1 [Compound 123, [2-(3-Fluoro-phenyl)-6-methyl-1H-benzoimidazol-5-yl] (4-pyridin-3-yl-thiazol-2-yl)-amine]	1 to 10 µM
Cc1cc2c(cc1Nc1nc(-c3ccncc3)cs1)nc(-c1cccc(F)c1)n2C [Compound 124, [2-(3-Fluoro-phenyl)-1,6-dimethyl-1H-benzoimidazol-5-yl]-(4-pyridin-4-yl-thiazol-2-yl)-amine]	≤ 1 µM
COc1cccc(-c2nc3cc(Nc4nc(-c5ccncc5)cs4)c(C)cc3n2C)c1 [Compound 125, [2-(3-Methoxy-phenyl)-1,6-dimethyl-1H-benzoimidazol-5-yl]-(4-pyridin-4-yl-thiazol-2-yl)-amine]	≤ 1 µM
COc1cccc(-c2nc3cc(Nc4nc(-c5cccnc5)cs4)c(C)cc3[nH]2)c1 [Compound 126, [2-(3-Methoxy-phenyl)-6-methyl-1H-benzoimidazol-5-yl]-(4-pyridin-3-yl-thiazol-2-yl)-amine]	≤ 1 µM
Cc1cc2nc(-c3cccc(C(F)F)c3)[nH]c2cc1Nc1nc(-c2cccc(C#N)c2)cs1 [Compound 127, 3-{2-[2-(3-Difluoromethyl-phenyl)-6-methyl-3H-benzoimidazol-5-ylamino]-thiazol-4-yl}-benzonitrile]	≤ 1 µM
COc1cccc(-c2nc3cc(Nc4nc(-c5ccc(C#N)cc5)cs4)c(C)cc3[nH]2)c1 [Compound 128, 4-{2-[2-(3-Methoxy-phenyl)-6-methyl-1H-benzoimidazol-5-ylamino]-thiazol-4-yl}-benzonitrile]	≤ 1 µM
Cc1cccc(-c2nc3cc(Nc4nc(-c5cccc(C#N)c5)cs4)c(C)cc3[nH]2)c1 [Compound 129, 3-[2-(6-Methyl-2-m-tolyl-1H-benzoimidazol-5-ylamino)-thiazol-4-yl]-benzonitrile]	≤ 1 µM
Cc1cc2[nH]c(-c3cccc(C(F)(F)F)c3)nc2cc1Nc1nc(-c2cccc(C#N)c2)cs1 [Compound 130, 3-{2-[6-Methyl-2-(3-trifluoromethyl-phenyl)-1H-benzoimidazol-5-ylamino]-thiazol-4-yl}-benzonitrile]	≤ 1 µM
Cc1cc2[nH]c(-c3cccc(S(C)(=O)=O)c3)nc2cc1Nc1nc(-c2ccc(C#N)cc2)cs1 [Compound 131, 4-{2-[2-(3-Methanesulfonyl-phenyl)-6-methyl-1H-benzoimidazol-5-ylamino]-thiazol-4-yl}-benzonitrile]	≤ 1 µM
Cc1cc2nc(-c3cccc(N(C)C)c3)[nH]c2cc1Nc1nc(-c2cccnc2)cs1 [Compound 132, [2-(3-Dimethylamino-phenyl)-6-methyl-3H-benzoimidazol-5-yl]-(4-pyridin-3-yl-thiazol-2-yl)-amine]	≤ 1 µM
Cc1cc2c(cc1Nc1nc(-c3ccncc3)cs1)nc(-c1cccc(N(C)C)c1)n2C [Compound 133]	≤ 1 µM
CCS(=O)(=O)Nc1cccc(-c2nc3cc(Nc4nc(-c5ccncc5)cs4)c(C)cc3n2C)c1 [Compound 134, Ethanesulfonic acid {3-[1,6-dimethyl-5-(4-pyridin-4-yl-thiazol-2-ylamino)-1H-benzoimidazol-2-yl]-phenyl}-amide]	1 to 10 µM
C=CS(=O)(=O)Nc1cccc(-c2nc3cc(Nc4nc(-c5ccncc5)cs4)c(C)cc3n2C)c1 [Compound 135, Ethenesulfonic acid {3-[1,6-dimethyl-5-(4-pyridin-4-yl-thiazol-2-ylamino)-1H-benzoimidazol-2-yl]-phenyl}-amide]	1 to 10 µM
Cc1cc2[nH]c(-c3cccc(C(C)C)c3)nc2cc1Nc1nc(-c2cccnc2)cs1 [Compound 136, [2-(3-Isopropyl-phenyl)-6-methyl-1H-benzoimidazol-5-yl]-(4-pyridin-3-yl-thiazol-2-yl)-amine]	≤ 1 µM
Cc1cc2[nH]c(-c3cccc(C(C)(C)C)c3)nc2cc1Nc1nc(-c2cccnc2)cs1 [Compound 137, [2-(3-tert-Butyl-phenyl)-6-methyl-1H-benzoimidazol-5-yl]-(4-pyridin-3-yl-thiazol-2-yl)-amine]	≤ 1 µM
